Experimental findings from patent publication US8088806B2 (Achillion Pharmaceuticals, Inc., priority 2005, dated 2012) are described below.

In the experiment the test system is HCV replicon. Put plainly: Replicon based assay of HCV replication inhibition (NPT ELISA). In kind it is cell-based, Hepatitis C virus. As to conditions: Hepatitis C virus, replicon based assay of HCV replication inhibition; Table II; read-out: Activity. A digest of the protocol:
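NPT (neomycin phosphotransferase) content, proportional to replicon replication, quantified by capture ELISA on day four. Before that, replicon-bearing Huh-7 cells in G418-free screening medium were exposed three days at 37° C to compound, typically six doses from 10 to 0.03 micromolar, with equal DMSO across wells.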
Background: A replicon is a self-replicating genome or part of one, used to study replication in cells.
`CCCCCOc1ccc(Nc2nc(-c3ccccc3OC)cs2)cc1C(F)(F)F` [compound 374, 4-(2-methoxyphenyl)-N-(4-(pentyloxy)-3-(trifluoromethyl)phenyl)thia-zol-2-amine]: the EC50 fell in the range of 1 to 10 µM.
To `CCCCCCCOc1ccc(Nc2nc(-c3ccccc3OC)cs2)cc1` [compound 375, N-(4-(heptyloxy)phenyl)-4-(2-methoxyphenyl)thiazol-2-amine] belongs under 1 µM; to `CCCCCCCCOc1ccc(Nc2nc(-c3ccccc3OC)cs2)cc1` [compound 376, 4-(2-methoxyphenyl)-N-(4-(octyloxy)phenyl)thiazol-2-amine], under 1 µM; to `CCCCCOc1ccc(Nc2nc(-c3ccc(O)nc3)cs2)cc1C(F)(F)F` [compound 377, 5-(2-(4-(pentyloxy)-3-(trifluoromethyl)phenyl-amino)thiazol-4-yl)pyridin-2-ol], under 1 µM.
To `CCCCCOc1ccc(Nc2nc(-c3ccc(OC)nc3)cs2)cc1C(F)(F)F` [compound 378, 4-(6-methoxypyridin-3-yl)-N-(4-(pentyloxy)-3-(trifluoromethyl)phenyl)thia-zol-2-amine] belongs under 1 µM; to `CCCCCN(C)c1ccc(Nc2nc(-c3cccnc3)cs2)cc1C(F)(F)F` [compound 379, N^1-methyl-N^1-pentyl-N^4-(4-(pyridin-3-yl)thiazol-2-yl)-2-(trifluoromethyl)benzene-1,4-diamine], under 1 µM; to `CCCCCCCCOc1ccc(Nc2nc(-c3ccc(Br)cc3)cs2)cc1` [compound 382, 4-(4-bromophenyl)-N-(4-(octyloxy)phenyl)thiazol-2-amine], under 1 µM.
To `CCCCCCCCOc1ccc(Nc2nc(-c3ccc4[nH]c(=O)oc4c3)cs2)cc1` [compound 383, 6-(2-(4-(octyloxy)phenylamino)thia-zol-4-yl)benzo[d]oxazol-2(3H)-one] belongs under 1 µM; to `CCCCCCCCOc1ccc(Nc2nc(-c3cccc(C(=O)O)c3)cs2)cc1` [compound 384, 3-(2-(4-(octyloxy)phenylamino)thia-zol-4-yl)benzoic acid], under 1 µM; to `CCCCCCCCOc1ccc(Nc2nc(-c3ccccn3)cs2)cc1` [compound 385, N-(4-(octyloxy)phenyl)-4-(pyridin-2-yl)thiazol-2-amine], under 1 µM.
`CCCCCCCCOc1ccc(Nc2nc(-c3c[nH]c4ccccc34)cs2)cc1` [compound 386, 4-(1H-indol-3-yl)-N-(4-(octyloxy)pheenyl)thiazol-2-amine]: the EC50 was under 1 µM.
To `CCCCCCCCOc1ccc(Nc2nc(-c3ccc(-c4ccccn4)s3)cs2)cc1` [compound 387, N-(4-(octyloxy)phenyl)-4-(5-(pyridin-2-yl)thiophen-2-yl)thiazol-2-amine] belongs under 1 µM.
As for `CCCCCCCCOc1ccc(Nc2nc(-c3nc4ccccc4s3)cs2)cc1` [compound 388, 4-(benzo[d]thiazol-2-yl)-N-(4-(octyloxy)phenyl)thiazol-2-amine], the EC50 is under 1 µM.
Regarding `CCCCCCCCOc1ccc(Nc2nc(-c3cc4ccccc4o3)cs2)cc1` [compound 389], the EC50 is under 1 µM.
To `CCCCCCCCOc1ccc(Nc2nc(-c3sc(-c4cnccn4)nc3C)cs2)cc1` [compound 390, 4-(4-methyl-2-(pyrazin-2-yl)thiazol-5-yl)-N-(4-(octyloxy)phenyl)thiazol-2-amine] belongs under 1 µM; to `CCCCCCCCOc1ccc(Nc2nc(CC)cs2)cc1` [compound 391, 4-ethyl-N-(4-(octyloxy)phenyl)thiazol-2-amine], under 1 µM; to `CCCCCCCOc1ccc(Nc2nc(-c3ccc(O)c(O)c3)cs2)cc1` [compound 392, 4-(2-(4-(heptyloxy)phenylamino)thia-zol-4-yl)benzene-1,2-diol], under 1 µM.
The figure for `CCCCCCCOc1ccc(Nc2nc(-c3ccc(Cl)s3)cs2)cc1` [compound 393, 4-(5-chlorothiophen-2-yl)-N-(4-(heptyloxy)phenyl)thiazol-2-amine] is under 1 µM.
To `CCCCCCCOc1ccc(Nc2nc(-c3ccc(Br)cc3)cs2)cc1` [compound 394, 4-(4-bromophenyl)-N-(4-(heptyloxy)phenyl)thiazol-2-amine] belongs under 1 µM.
Turning to `CCCCCCCOc1ccc(Nc2nc(-c3ccc4[nH]c(=O)oc4c3)cs2)cc1` [compound 395, 6-(2-(4-(heptyloxy)phenylamino)thia-zol-4-yl)benzo[d]exazol-2(3H)-one], the EC50 was under 1 µM.
To `CCCCCCCOc1ccc(Nc2nc(-c3cccc(C(=O)O)c3)cs2)cc1` [compound 396, 3-(2-(4-(heptyloxy)phenylamino)thia-zol-4-yl)benzoic acid] belongs under 1 µM; to `CCCCCCCOc1ccc(Nc2nc(-c3ccccn3)cs2)cc1` [compound 397, N-(4-(heptyloxy)phenyl)-4-(pyridin-2-yl)thiazol-2-amine], under 1 µM.
As for `CCCCCCCOc1ccc(Nc2nc(-c3c[nH]c4ccccc34)cs2)cc1` [compound 398, N-(4-(heptyloxy)phenyl)-4-(1H-indol-3-yl)thiazol-2-amine], the EC50 is under 1 µM.
The figure for `CCCCCCCOc1ccc(Nc2nc(-c3ccc(-c4ccccn4)s3)cs2)cc1` [compound 399, N-(4-(heptyloxy)phenyl)-4-(5-(pyridin-2-yl)thiophen-2-yl)thiazol-2-amine] is under 1 µM.
The figure for `CCCCCCCOc1ccc(Nc2nc(-c3nc4ccccc4s3)cs2)cc1` [compound 400, 4-(benzo[d]thiazol-2-yl)-N-(4-(heptyloxy)phenyl)thiazol-2-amine] is 1 to 10 µM; for `CCCCCCCOc1ccc(Nc2nc(-c3cc4ccccc4o3)cs2)cc1` [compound 401, 4-(benzofuran-2-yl)-N-(4-(heptyloxy)phenyl)thiazol-2-amine] it is 1 to 10 µM; for `CCCCCCCOc1ccc(Nc2nc(-c3sc(-c4cnccn4)nc3C)cs2)cc1` [compound 402] it is under 1 µM.
The figure for `CCCCCCCOc1ccc(Nc2nc(CC)cs2)cc1` [compound 403, 4-ethyl-N-(4-(heptyloxy)phenyl)thiazol-2-amine] is under 1 µM; for `CCCCCOc1ccc(Nc2nc(-c3ccc(O)c(O)c3)cs2)cc1C(F)(F)F` [compound 404, 4-(2-(3-(trifluoromethyl)-4-(pentyloxy)phenylamino)thia-zol-4-yl)benzene-1,2-diol] it is under 1 µM.
With `CCCCCOc1ccc(Nc2nc(-c3ccc(Cl)s3)cs2)cc1C(F)(F)F` [compound 405], the EC50 was under 1 µM.
In the case of `CCCCCOc1ccc(Nc2nc(-c3ccc(Br)cc3)cs2)cc1C(F)(F)F` [compound 406, 4-(4-bromophenyl)-N-(3-(trifluoromethyl)-4-(pentyloxy)phenyl)thiazol-2-amine], the EC50 is under 1 µM.
Take `CCCCCOc1ccc(Nc2nc(-c3ccc4[nH]c(=O)oc4c3)cs2)cc1C(F)(F)F` [compound 407, 6-(2-(3-(trifluoromethyl)-4-(pentyloxy)phenylamino)thia-zol-4-yl)benzo[d]oxazol-2(3H)-one]: the EC50 is under 1 µM.
To `CCCCCOc1ccc(Nc2nc(-c3cccc(C(=O)O)c3)cs2)cc1C(F)(F)F` [compound 408, 3-(2-(3-(trifluoromethyl)-4-(pentyloxy)phenylamino)thia-zol-4-yl)benzoic acid] belongs under 1 µM.
